Where a name gives a salt, the structure may show the parent alone.
What was measured:
[1] = biological target: T1, Na^+ /H^+ exchanger from rabbit erythrocytes (Oryctolagus cuniculus, UniProt P23791); assay: Inhibition of the Na^+ /H^+ exchanger from rabbit erythrocytes (Na^+ influx by flame photometry); assay type: cell-based, rabbit (White New Zealand); conditions: pH 7.4, 37° C., cholesterol-fed rabbits
T1 construct: determine the Na^+ influx into the erythrocytes via Na^+ /H^+ exchange by flame photometry; endogenous in cells; host or cells: intact erythrocytes (whole blood samples) of cholesterol-fed White New Zealand rabbits
Method: White New Zealand rabbits (Ivanovas) received a standard diet containing 2% cholesterol for six weeks in order to activate Na^+ /H^+ exchange and thus to be able to determine the Na^+ influx into the erythrocytes via Na^+ /H^+ exchange by flame photometry. The blood was taken from the auricular arteries and rendered uncoagulable by means of 25 IU of potassium heparin. A part of each sample was used for the duplicate determination of the hematocrit by centrifugation. Aliquots of 100 μl in each case were used to measure the Na^+ starting content of the erythrocytes.
In order to determine the amiloride-sensitive sodium influx, 100 μl of each blood sample were incubated at pH 7.4 and 37° C. in 5 ml in each case of a hyperosmolar salt-sucrose medium (mmol/l: 140 NaCl, 3 KCl, 150 sucrose, 0.1 ouabain, 20 trishydroxymethylaminomethane). The erythrocytes were then washed three times with ice-cold MgCl2 --ouabain solution (mmol/l: […] MgCl2, 0.1 ouabain) and hemolyzed in 2.0 ml of distilled water. The intracellular sodium content was determined by flame photometry.
The net Na^+ influx was calculated from the difference between sodium starting values and the sodium content of the erythrocytes after incubation. The amilorideinhibitable sodium influx ensued from the difference in the sodium content of the erythrocytes after incubation with and without amiloride 3×10^-4 mol/l. The sodium influx was also determined in this manner in the case of the compounds according to the invention.

cardiac arrhythmias = conditions: in vivo; cited from earlier work

T1 sequence (P23791 whole entry): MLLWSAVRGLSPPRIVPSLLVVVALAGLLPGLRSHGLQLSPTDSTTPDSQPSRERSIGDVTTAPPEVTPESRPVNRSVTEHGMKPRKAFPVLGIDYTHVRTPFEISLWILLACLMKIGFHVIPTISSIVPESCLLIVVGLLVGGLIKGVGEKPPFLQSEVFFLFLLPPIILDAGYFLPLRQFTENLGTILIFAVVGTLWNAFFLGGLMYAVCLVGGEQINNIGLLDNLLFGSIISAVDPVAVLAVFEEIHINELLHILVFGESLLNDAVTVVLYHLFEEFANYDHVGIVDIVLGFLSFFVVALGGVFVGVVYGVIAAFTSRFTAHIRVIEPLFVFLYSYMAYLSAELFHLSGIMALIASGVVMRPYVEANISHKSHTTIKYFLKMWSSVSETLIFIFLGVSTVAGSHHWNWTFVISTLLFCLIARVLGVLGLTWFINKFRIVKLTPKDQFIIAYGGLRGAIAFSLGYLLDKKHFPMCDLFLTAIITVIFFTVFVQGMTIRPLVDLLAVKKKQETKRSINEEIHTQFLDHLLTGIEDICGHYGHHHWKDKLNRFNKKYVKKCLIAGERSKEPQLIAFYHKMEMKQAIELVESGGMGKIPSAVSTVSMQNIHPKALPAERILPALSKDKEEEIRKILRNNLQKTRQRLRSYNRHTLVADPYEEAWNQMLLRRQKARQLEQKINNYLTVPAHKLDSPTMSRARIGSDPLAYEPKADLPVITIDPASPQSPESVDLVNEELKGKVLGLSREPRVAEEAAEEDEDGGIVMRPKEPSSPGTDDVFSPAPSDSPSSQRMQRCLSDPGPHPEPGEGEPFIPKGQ

SMILES	IC50 [1]	side effects accompanying antiarrhythmic effect (cardiac arrhythmias)
CC(O)c1ccc(Oc2ccc(C(=O)N=C(N)N)cc2S(C)(=O)=O)cc1 (racemic) [Example 2, hydrochloride]	400 nM	–
CC(=O)c1ccc(Oc2ccc(C(=O)N=C(N)N)cc2S(C)(=O)=O)cc1 [Example 1, 4-(4-Acetylphenoxy)-3-methylsulfonylbenzoylguanidine]	400 nM	–
C[C@@H](O)[C@H](O)c1ccc(Oc2ccc(C(=O)N=C(N)N)cc2S(C)(=O)=O)cc1 [Example 3, 4-[4-(1(R),2(R) -Dihydroxyprop-1-yl)phenoxy]-3-methylsulfonylbenzoylguanidine]	300 to 500 nM	–
C[C@H](O)[C@@H](O)c1ccc(Oc2ccc(C(=O)N=C(N)N)cc2S(C)(=O)=O)cc1 [Example 4, 4-[4-(1(S),2(S)-Dihydroxyprop-1-yl)phenoxy]-3-methylsulfonylbenzoylguanidin]	100 to 500 nM	–
N=C(N)NC(=O)c1nc(Cl)c(N)nc1N [amiloride, Amiloride]	–	hypotensive and saluretic action
